From US5734081A, “Arylthio compounds” (Warner-Lambert Company, priority 1995, dated 1998) come the findings set out here.

Common to all, as to assay type: cell-based
One series deals with HIV-1A17. The series can be described thus: Anti-HIV activity, HIV-1A17 in MT-4 cells. The settings on record: Human immunodeficiency virus 1, MT4. The method, then:
(§1) The compounds of the invention were also evaluated against various other HIV strains and cell lines utilizing the assay methodology described above. The compounds were additionally evaluated against clinical isolates of HIV strains.

The next series concerns HIV-1WOME. The series can be described thus: Anti-HIV activity, clinical isolate HIV-1WOME in PBL. The settings on record: Human immunodeficiency virus 1. How it is done:
as §1

The nature of series [1]: H9 cell cytotoxicity (XTT assay, uninfected cells). As to conditions: human, drug alone, read-out: IC50 (Inhibitory Concentration where drug alone inhibits cell growth). How it is done: (§2) The H9 T-cell line is batch infected with HIV virus at an M0I of 0.01. After 2 hours absorption, the cells are washed, resuspended in RPMI-1640/10% fetal calf serum, and seeded at […] of a 96-well plate. A duplicate plate of uninfected H9 cells is prepared for the cytotoxicity assay. Drugs are serially diluted 1/3.16 in DMSO, transferred to media at an 8× concentration, and then added to the cultures in triplicate. The final DMSO concentration of 0.002 (0.2%).
(§3) Viral production is measured by RT assay and cytotoxicity is measured by XTT assay at 7 days post-infection. The RT assay is performed as a modification of Borroto-Esoda and Boone, J. Virol., 1991;65:1952-1959 and quantitated using a Molecular Dynamics Phosphoimager with Imagequant software. The XTT assay is performed as a modification of Roehm, et al., J. Immuno. Methods., 1991;142:257-265 and quantitated using a molecular Devices Thermomax plate reader with Softmax software.
(§4) Data is electronically transferred to a Microsoft Excell spreadsheet for analysis. The RT assay values equivalent to 50% and 90% inhibition of virus production are calculated from the untreated controls. The concentrations of inhibitor required to produce these values (IC50 and IC90) are interpolated from data points flanking these RT activities. The XTT assay values equivalent to 50% cytotoxicity are calculated from the untreated controls. The concentrations of inhibitor required to produce this value are interpolated from data points flanking these XTT values.
For orientation: Tetrazolium assays rely on reduction of a dye to a coloured formazan, in cell work by metabolically active cells.

Series [2] is described as follows: CEM cell growth inhibition (XTT, noninfected cells). As to conditions: human, CEM Cell Assay, drug alone, read-out: IC50 (Inhibitory Concentration where drug alone inhibits cell growth). The procedure, abridged:
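Uninfected CEM T4 lymphocytes were run alongside HIV-infected cultures. Compound in DMSO was diluted 1:200 in medium, then in half-log10 steps, and added to an equal volume of cells.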

A further series relates to HIV-2ROD. The experiment in a line: Anti-HIV activity, HIV-2ROD in CEM cells. The settings on record: Human immunodeficiency virus 2, CCRF-CEM; CEM, HIV-2ROD; read-out: EC50. The method, then:
(§5) Yet another test system employed to determine antiviral activity is called the CEM cell assay.
(§6) T4 lymphocytes (CEM cell line) are exposed to HIV at a virus to cell ratio approximately 0.05, and plated along with noninfected control cells in 96-well microliter plates.
(§7) The candidate agent is dissolved in dimethyl sulfoxide (unless otherwise noted), then diluted 1:200 in cell culture medium. Further dilutions (half-log10) are prepared before adding to an equal volume of medium containing either infected or noninfected cells. Cultures are incubated at 37° in a 5% carbon dioxide atmosphere for 6 or 7 days. The tetrazolium salt, XTT, is added to all wells, and cultures are incubated to allow formazan color development by viable cells (J. National Cancer Institute, 1989;81:577-586). Individual wells are analyzed spectrophotometrically to quantitate formazan production, and in addition are viewed microscopically for detection of viable cells confirmation of protective activity.
(§8) Drug-tested virus-infected cells are compared with drug-treated noninfected cells and with other appropriate controls (untreated infected and untreated noninfected cells, drug-contain wells without cells, etc.) on the same plate. Data are reviewed in comparison with other tests done at the same time and a determination about activity is made.
as §1

The next series relates to HIV-1VIHU. The experiment in a line: Anti-HIV activity, clinical isolate HIV-1VIHU in PBL. The settings on record: Human immunodeficiency virus 1. The method, then:
as §1

For the next series, the system named is HIV-1RF. The experiment in a line: Anti-HIV activity, HIV-1RF in CEM cells. As to conditions: Human immunodeficiency virus 1, CCRF-CEM; CEM, HIV-1RF; read-out: EC50. How it is done:
as §5, §6, §7, §8, §1

The subject of series [3] is HIV-1IIIb. The experiment in a line: Anti-HIV activity, HIV-1IIIb in CEM cells. The settings on record: CEM, HIV-1IIIb, read-out: EC50. The method, then:
as §5, §6, §7, §8, §1

The subject of series [4] is HIV-1. The series can be described thus: HIV H9 cell assay, anti-HIV-1 activity. As to conditions: Human immunodeficiency virus 1, H9, 168 h, read-out: EC50 (Effective Concentration which protects cells from viral cytopathic effects).
From the text: Another test system utilized to evaluate the invention compounds is called HIV H9 assay. The HIV H9 cell assay measures the inhibitor concentration required to suppress HIV-1 virus replication. In this system, viral growth occurs through multiple rounds of the life-cycle. Any suppression of the replication kinetics results in a geometric decrease in virus production. As a result, this assay is a sensitive means of measuring the ability of a compound to inhibit HIV-1 viral replication.
as §2, §3, §4
In general terms: Cytopathic effects are the visible damage that an infection or toxin causes in cultured cells.

For the next series, the system named is HIV-1WEIO. The series can be described thus: Anti-HIV activity, clinical isolate HIV-1WEIO in PBL. As to conditions: Human immunodeficiency virus 1. How it is done:
as §1

The test system of series [5] is HIV-1. The experiment in a line: CEM cell assay, anti-HIV-1 activity. As to conditions: Human immunodeficiency virus 1, CCRF-CEM, HIV-1, 6 or 7 days, read-out: EC50 (Effective Concentration which protects cells from viral cytopathic effects). Put shortly:
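CEM T4 lymphocytes infected with HIV at virus:cell ratio ~0.05, then treated with half-log10 dilutions of compound from DMSO stock and incubated 6 or 7 days at 37° in 5% CO2. Protection from virus-induced cell killing was read by XTT formazan absorbance and microscopy versus drug-treated noninfected cells and untreated controls.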

The subject of another series is HIV-1N119. The series can be described thus: Anti-HIV activity, HIV-1N119 in CEM cells. The settings on record: Human immunodeficiency virus 1, CCRF-CEM. The method, then: as §5, §6, §7, §8, §1
A further series relates to HIV-1BAKI. The series can be described thus: Anti-HIV activity, clinical isolate HIV-1BAKI in PBL. The method, then:
as §1

The test system of series [6] is HIV-1IIIb. The experiment in a line: Anti-HIV activity, HIV-1IIIb in MT-2 cells. The settings on record: Human immunodeficiency virus 1, MT2; MT-2, HIV-1IIIb. The method, then:
as §1

The test system of a further series is SIV. The experiment in a line: Antiviral activity, SIV in CEM cells. The settings on record: Simian immunodeficiency virus, CCRF-CEM, read-out: EC50.
In series [7] the test system is HIV-1IIIb. The series can be described thus: Anti-HIV activity, HIV-1IIIb in AA5 cells. As to conditions: Human immunodeficiency virus 1; AA5, HIV-1IIIb. How it is done: as §1
Setting [8] is: Human immunodeficiency virus 1, CCRF-CEM.
[9] abbreviates: Human immunodeficiency virus 1, PBL.

For `CC(=O)Nc1ccc(SSc2ccc(NC(C)=O)cc2C(N)=O)c(C(N)=O)c1` [Example 9, 2,2'-Dithiobis(5-acetylamino)benzamide], the EC50 in the series on HIV-1A17 turned out to be 2400 nM; in the series with HIV-1WOME, 5700 nM; in the series with HIV-2ROD, 1000 nM; with HIV-1VIHU, 5200 nM; with HIV-1RF, 400 nM; with HIV-1IIIb [3] (setting [8]), 400 nM. The EC50 in the series with HIV-1 [4] was found to be 1700 nM; in the series with HIV-1WEIO, 7500 nM; with HIV-1 [5], 5200 nM; with HIV-1N119, 2300 nM; in the series on HIV-1BAKI (setting [9]), 1800 nM; in the series with HIV-1IIIb [6] it was 9400 nM. Moreover, the EC50 in the series with SIV turned out to be 2100 nM; with HIV-1IIIb [7] it was 3500 nM. In series [1], the CC50 at 168 h is more than 100000 nM. Besides, the CC50 in series [2] was more than 120000 nM.

In the case of `NS(=O)(=O)c1ccc(NC(=O)c2ccccc2SSc2ccccc2C(=O)Nc2ccc(S(N)(=O)=O)cc2)cc1` [Example 1], the EC50 came out at 600 nM in the series with HIV-1A17; 4000 nM in the series with HIV-1WOME; 2600 nM in the series on HIV-2ROD; 3600 nM in the series on HIV-1VIHU; 2300 nM in the series on HIV-1RF; 4600 nM in the series on HIV-1IIIb [3]. Also, the EC50 with HIV-1IIIb [3] (setting [8]) worked out at 2800 nM; in the series on HIV-1 [4] it was 700 nM; in the series on HIV-1WEIO it was 3500 nM; in the series with HIV-1 [5] it was 2900 nM; with HIV-1N119, 2200 nM; in the series on HIV-1BAKI (setting [9]), 300 nM. The EC50 with HIV-1BAKI (PBL) amounted to 250 nM; in the series with HIV-1IIIb [6], 2600 nM; with SIV it was 14600 nM; with HIV-1IIIb [7], 900 nM. Moreover, in [1], the CC50 at 168 h is 36000 nM. Moreover, in series [2], the CC50 was more than 120000 nM.
